According to article PMC11303535 (Nature Communications, 2024):

Legend:
hTRPV1 S512F = hTRPV1 S512F (Homo sapiens, UniProt Q8NER1, S512F); assay: FLIPR calcium influx assay, hTRPV1 S512F mutant; format: cell-based; conditions: also unresponsive to pH
hTRPV1 = hTRPV1 (Homo sapiens, UniProt Q8NER1); assay: FLIPR calcium influx assay, hTRPV1 WT in HEK293T; format: cell-based; conditions: 3.33 µM capsaicin
TRPV1 = conditions: CHL at concentrations up to 250 μM; cited from earlier work

hTRPV1, sequence (Q8NER1 whole entry): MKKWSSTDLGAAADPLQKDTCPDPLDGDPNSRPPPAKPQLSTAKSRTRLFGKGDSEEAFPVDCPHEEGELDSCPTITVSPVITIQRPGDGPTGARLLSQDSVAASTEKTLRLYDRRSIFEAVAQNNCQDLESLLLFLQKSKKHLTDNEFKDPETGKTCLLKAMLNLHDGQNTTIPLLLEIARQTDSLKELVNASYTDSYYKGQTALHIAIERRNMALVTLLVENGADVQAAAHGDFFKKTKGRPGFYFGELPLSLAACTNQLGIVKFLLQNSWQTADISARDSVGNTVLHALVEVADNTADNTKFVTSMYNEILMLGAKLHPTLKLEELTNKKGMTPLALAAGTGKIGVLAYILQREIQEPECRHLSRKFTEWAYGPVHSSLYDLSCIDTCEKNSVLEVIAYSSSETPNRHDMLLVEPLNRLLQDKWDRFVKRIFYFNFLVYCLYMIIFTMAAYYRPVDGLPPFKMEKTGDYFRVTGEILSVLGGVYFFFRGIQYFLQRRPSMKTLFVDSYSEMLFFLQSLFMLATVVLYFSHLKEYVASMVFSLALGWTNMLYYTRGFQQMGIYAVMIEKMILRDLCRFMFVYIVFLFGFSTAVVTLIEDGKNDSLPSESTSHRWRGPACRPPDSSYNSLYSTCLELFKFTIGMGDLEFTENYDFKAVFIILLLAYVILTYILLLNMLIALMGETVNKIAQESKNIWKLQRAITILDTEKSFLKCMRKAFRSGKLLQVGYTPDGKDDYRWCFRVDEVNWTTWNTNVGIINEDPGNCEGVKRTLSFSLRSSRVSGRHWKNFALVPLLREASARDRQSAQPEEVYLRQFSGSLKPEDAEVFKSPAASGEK
hTRPV1 S512F, sequence (Q8NER1 whole entry S512F): as the sequence (Q8NER1 whole entry) above, with S512F counted along it

response of mutant to capsaicin (hTRPV1 S512F)	activation of hTRPV1 by capsaicin (hTRPV1)	SMILES	inhibition of TRPV1 currents evoked by 2-APB (TRPV1)
unresponsive	80–90%	COc1cc(CNC(=O)CCCC/C=C/C(C)C)ccc1O [capsaicin]	–
–	–	CC(C)CCC[C@@H](C)[C@H]1CC[C@H]2[C@@H]3CC=C4C[C@@H](O)CC[C@]4(C)[C@H]3CC[C@]12C [CHL, cholesterol]	not inhibited
